Data as given in US5057512A, “3-amino-2-oxo-azetidine-1-sulfonic acids” (Uclaf; Roussel, priority 1981, dated 1991).
Blank lines part the entries; values can stand above or below the compound they belong to.

What was measured:
Experiment in all cases: M.I.C., dilutions in liquid medium
Type in all cases: cell-based
Providencia Du 48 = conditions: 37° C.; for MIC: Providencia, DU48
Protocol: (§1) A. Activity in Vitro-Method of Dilutions in Liquid Medium
(§2) A series of tubes was prepared in which the same amount of sterile nutritive medium was distributed and there was distributed in each tube increasing amounts of the test product. Then, each tube was inoculated with a bacterial strain and after incubation for twenty-four or forty-eight hours in an oven at 37° C., the inhibition of the growth was evaluated by trans-illumination to determine the minimum inhibiting concentrations (M.I.C.), expressed in μg/ml.

[1] = test system: Salmonella typhimurium 420; conditions: Salmonella enterica, 37° C.
Protocol: as §1, §2

[2] = test system: Escherichia Coli Resistant to Gentamycine Tobramycine R55 123 D; conditions: 37° C.
Protocol: as §1, §2

[3] = test system: Klebsiella Pneumoniae 2536 Resistant Gentamycine; conditions: 37° C.
Protocol: as §1, §2

[4] = test system: Klebsiella Pneumoniae Exp. 52145; conditions: 37° C.; for MIC: Klebsiella pneumoniae; for M.I.C.: 24 Hr.
Protocol: as §1, §2

[5] = test system: Serratia Resistant to Gentamycine 2 532; conditions: 37° C.; for MIC: Serratia; for M.I.C.: 24 Hr.
Protocol: as §1, §2

[6] = test system: Proteus vulgaris (indol +) A 232; conditions: 37° C.; for MIC: Proteus vulgaris
Protocol: as §1, §2

[7] = test system: Escherichia Coli Resistant to Tetracycline AT CC 11 303; conditions: 37° C.
Protocol: as §1, §2

[8] = test system: Escherichia Coli Sensitive to Tetracycline 7624; conditions: 37° C.
Protocol: as §1, §2

[9] = test system: Proteus mirabilis (indol -) A 235; conditions: 37° C.; for MIC: Proteus mirabilis
Protocol: as §1, §2

[10] = test system: Klebsiella aerogenes 1082 E; conditions: 37° C.; for MIC: Klebsiella aerogenes, 1082E
Protocol: as §1, §2

Escherichia coli UC 1894 = conditions: 37° C.; for MIC: Escherichia coli, UC1894
Protocol: as §1, §2

Escherichia coli 0 78 = conditions: 37° C.
Protocol: as §1, §2

Escherichia coli T E M = conditions: 37° C.; for MIC: Escherichia coli
Protocol: as §1, §2

[11] = test system: Salmonella typhimurium MZ 11; conditions: 37° C.; for MIC: Salmonella enterica, TYPHIMURIUM
Protocol: as §1, §2

[12] = test system: Enterobacter cloacae 1321 E; conditions: 37° C.; for MIC: Enterobacter cloacae, 1321E
Protocol: as §1, §2

[13] = test system: Pseudomonas aeruginosa 1771 m; conditions: 37° C.; for MIC: Pseudomonas aeruginosa, 1771M
Protocol: as §1, §2

[14] = test system: Klebsiella aerogenes 1522 E; conditions: 37° C.; for MIC: Klebsiella aerogenes, 1522E
Protocol: as §1, §2

Escherichia coli 1507 E = conditions: 37° C.; for MIC: Escherichia coli, 1507E
Protocol: as §1, §2

Escherichia coli DC 2 = conditions: 37° C.; for MIC: Escherichia coli, DC2
Protocol: as §1, §2

Escherichia coli DC 0 = conditions: 37° C.; for MIC: Escherichia coli
Protocol: as §1, §2

Enterobacter Cloacae 681 = conditions: 37° C.
Protocol: as §1, §2

- MIC (Providencia Du 48; 24 Hr.): 2.5 µg/mL
- MIC (Providencia Du 48; 48 Hr.): 2.5 µg/mL
- MIC ([1]; 24 Hr.): 2.5 µg/mL
- MIC ([1]; 48 Hr.): 5 µg/mL
- MIC ([2]; 24 Hr.): 1.2 µg/mL
- MIC ([2]; 48 Hr.): 1.2 µg/mL
- MIC ([3]; 24 Hr.): 2.5 µg/mL
- MIC ([3]; 48 Hr.): 2.5 µg/mL
- MIC ([4]; 24 h): 5 µg/mL
- MIC ([4]; 48 h): 10 µg/mL
- MIC ([5]; 24 h): 2.5 µg/mL
- MIC ([5]; 48 h): 5 µg/mL
- MIC ([6]; 24 Hr.): 1.2 µg/mL
- MIC ([6]; 48 Hr.): 1.2 µg/mL
- MIC ([7]; 24 Hr.): 0.6 µg/mL
- MIC ([7]; 48 Hr.): 0.6 µg/mL
- MIC ([8]; 24 Hr.): 1.2 µg/mL
- MIC ([8]; 48 Hr.): 1.2 µg/mL
- MIC ([9]; 24 h): 0.6 µg/mL
- MIC ([9]; 48 h): 0.6 µg/mL
Compound: NCCON=C(C(=O)NC1C(=O)N(S(=O)(=O)O)C1CCl)c1csc(N)n1 (mixture of isomers) [Example 3, Racemate of syn isomer of cis 4-chloromethyl-3[2(2-amino-4-thiazolyl)-2-(2-aminoethoxy)-imino-acetamido]-2-oxo-azetidine-1-sulfonic acid]

Compound: CON=C(C(=O)NC1C(=O)N(S(=O)(=O)O)C1CF)c1csc(N)n1 (mixture of isomers) [Example 5, Racemate of syn isomer of cis 4-fluoromethyl-3-[2-(2-amino-4-thiazolyl)-2-methoxyimino-acetamido]-2-oxo-azetidine-1-sulfonic acid]
- MIC ([10]; 24 h): 5 µg/mL
- MIC ([10]; 48 h): 5 µg/mL
- MIC (Escherichia coli UC 1894; 24 H): ≤ 0.04 µg/mL
- MIC (Escherichia coli UC 1894; 48 H): ≤ 0.04 µg/mL
- MIC (Providencia Du 48; 24 Hr.): 0.3 µg/mL
- MIC (Providencia Du 48; 48 Hr.): 0.3 µg/mL
- M.I.C. [4]: 0.3 µg/mL
- MIC ([4]; 48 h): 0.3 µg/mL
- MIC (Escherichia coli 0 78; Escherichia coli, 078, 24 h, 24 H): 0.15 µg/mL
- MIC (Escherichia coli 0 78; Escherichia coli, 078, 48 h, 48 H): 0.15 µg/mL
- MIC (Escherichia coli T E M; 24 h): 0.15 µg/mL
- MIC (Escherichia coli T E M; 48 h): 0.15 µg/mL
- MIC ([11]; 24 h): 0.08 µg/mL
- MIC ([11]; 48 h): 0.08 µg/mL
- MIC ([12]; 24 H): 0.08 µg/mL
- MIC ([12]; 48 H): 0.08 µg/mL
- M.I.C. [5]: 0.06 µg/mL
- MIC ([5]; 48 h): 1.2 µg/mL
- MIC ([13]; 24 H): 0.6 µg/mL
- MIC ([13]; 48 H): 1.2 µg/mL
- MIC ([14]; 24 h): 0.15 µg/mL
- MIC ([14]; 48 h): 0.15 µg/mL
- MIC (Escherichia coli 1507 E; 24 h): 0.15 µg/mL
- MIC (Escherichia coli 1507 E; 48 h): 0.15 µg/mL
- MIC ([6]; 24 Hr.): ≤ 0.04 µg/mL
- MIC ([6]; 48 Hr.): ≤ 0.04 µg/mL
- MIC (Escherichia coli DC 2; 24 H): 0.15 µg/mL
- MIC (Escherichia coli DC 2; 48 H): 0.3 µg/mL
- MIC ([9]; 24 h): 0.08 µg/mL
- MIC ([9]; 48 h): 0.08 µg/mL
- MIC (Escherichia coli DC 0; DC0, 24 h, 24 H): 0.3 µg/mL
- MIC (Escherichia coli DC 0; DC0, 48 h, 48 H): 0.3 µg/mL

Compound: CON=C(C(=O)NC1C(=O)N(S(=O)(=O)O)C1CF)c1csc(N)n1 [Example 11, (3S,4S)ΔZ 4-fluoromethyl-3-[2-(2-amino-4-thiazolyl)-2-methoxyimino-acetamido]-2-oxo-azetidine-1-sulfonic acid]
- M.I.C. ([10]; 24 H): 10 µg/mL
- M.I.C. (Escherichia coli UC 1894; 24 H): ≤ 0.04 µg/mL
- M.I.C. (Providencia Du 48; 24 Hr.): 0.3 µg/mL
- M.I.C. [4]: 0.08 µg/mL
- M.I.C. (Escherichia coli 0 78; 24 H): 0.08 µg/mL
- M.I.C. (Escherichia coli T E M; 24 H): 0.08 µg/mL
- M.I.C. ([11]; 24 H): ≤ 0.04 µg/mL
- M.I.C. ([12]; 24 H): 0.08 µg/mL
- M.I.C. [5]: 2.5 µg/mL
- M.I.C. ([13]; 24 H): 0.6 µg/mL
- M.I.C. ([14]; 24 H): 0.08 µg/mL
- M.I.C. (Escherichia coli 1507 E; 24 H): 0.08 µg/mL
- M.I.C. ([6]; 24 Hr.): ≤ 0.04 µg/mL
- M.I.C. (Escherichia coli DC 2; 24 H): 0.15 µg/mL
- M.I.C. ([9]; 24 Hr.): 0.15 µg/mL
- M.I.C. (Escherichia coli DC 0; 24 H): 0.15 µg/mL

- MIC (Providencia Du 48; 24 Hr.): 0.62 µg/mL
- MIC (Providencia Du 48; 48 Hr.): 0.62 µg/mL
- MIC ([1]; 24 Hr.): 1.25 µg/mL
- MIC ([1]; 48 Hr.): 1.25 µg/mL
- MIC ([2]; 24 Hr.): 0.62 µg/mL
- MIC ([2]; 48 Hr.): 0.62 µg/mL
- MIC ([3]; 24 Hr.): 2.5 µg/mL
- MIC ([3]; 48 Hr.): 2.5 µg/mL
- MIC ([4]; 24 h): 1.25 µg/mL
- MIC ([4]; 48 h): 2.5 µg/mL
- MIC ([5]; 24 h): 5 µg/mL
- MIC ([5]; 48 h): 5 µg/mL
- MIC ([6]; 24 Hr.): 0.08 µg/mL
- MIC ([6]; 48 Hr.): 0.08 µg/mL
- MIC ([7]; 24 Hr.): 0.16 µg/mL
- MIC ([7]; 48 Hr.): 0.16 µg/mL
- MIC ([8]; 24 Hr.): 1.25 µg/mL
- MIC ([8]; 48 Hr.): 1.25 µg/mL
- MIC (Enterobacter Cloacae 681; CLOACAE681, 24 Hr.): 2.5 µg/mL
- MIC (Enterobacter Cloacae 681; CLOACAE681, 48 Hr.): 2.5 µg/mL
- MIC ([9]; 24 h): 0.16 µg/mL
- MIC ([9]; 48 h): 0.16 µg/mL
Compound: CON=C(C(=O)NC1C(=O)N(S(=O)(=O)O)C1CCl)c1csc(N)n1 (mixture of isomers) [Example 1, Racemate of syn isomer of cis 4-chloromethyl-3-[2-(2-amino-4-thiazolyl)-2-methoxyimino-acetamido]-2-oxoazetidine-1-sulfonic acid]
